In the supplement of paper PMC10307832:

Assays:
Assay in all cases: relative viability (nuclei count vs DMSO), 5 days (fraction); higher = more cells survive
NVP-TAE684 + Tozasertib = compound: COc1cc(N2CCC(N3CCN(C)CC3)CC2)ccc1Nc1ncc(Cl)c(Nc2ccccc2S(=O)(=O)C(C)C)n1 [NVP-TAE684] + Cc1cc(Nc2cc(N3CCN(C)CC3)nc(Sc3ccc(NC(=O)C4CC4)cc3)n2)n[nH]1 [Tozasertib] (partner 0.1 µM)
In short: (§1)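 For relative viability, nuclei counts in treated wells were divided by those in vehicle wells. Lung cancer cell lines had been pin-tool dosed in 1536-well plates the day after seeding and cultured for 5 days, then fixed and stained in one step (final 0.05% Triton X-100, 1% formaldehyde, 1 ug/ml Hoechst) and imaged at 4×. Doses were one drug alone or a fixed anchor-drug dose plus five library-drug doses (not always all listed) in √10 steps, and values are duplicate-plate medians.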

Vandetanib + Pictilisib = compound: COc1cc2/c(=N/c3ccc(Br)cc3F)nc[nH]c2cc1OCC1CCN(C)CC1 [Vandetanib] + CS(=O)(=O)N1CCN(Cc2cc3nc(-c4cccc5[nH]ncc45)nc(N4CCOCC4)c3s2)CC1 [Pictilisib] (partner 1 µM)
In short: as §1

Vandetanib + Alpelisib = compound: COc1cc2/c(=N/c3ccc(Br)cc3F)nc[nH]c2cc1OCC1CCN(C)CC1 [Vandetanib] + Cc1nc(NC(=O)N2CCC[C@H]2C(N)=O)sc1-c1ccnc(C(C)(C)C(F)(F)F)c1 [Alpelisib] (partner 2 µM)
In short: as §1

Vandetanib + Decitabine = compound: COc1cc2/c(=N/c3ccc(Br)cc3F)nc[nH]c2cc1OCC1CCN(C)CC1 [Vandetanib] + Nc1ncn([C@H]2C[C@H](O)[C@@H](CO)O2)c(=O)n1 [Decitabine] (partner 2 µM)
In short: as §1

Cell Line	relative viability (NVP-TAE684 + Tozasertib; first compound 0.2 µM)	relative viability (NVP-TAE684 + Tozasertib; first compound 0.6325 µM)	relative viability (NVP-TAE684 + Tozasertib; first compound 2 µM)	relative viability (Vandetanib + Pictilisib; first compound 0.02 µM)	relative viability (Vandetanib + Pictilisib; first compound 0.06325 µM)	relative viability (Vandetanib + Pictilisib; first compound 0.2 µM)	relative viability (Vandetanib + Pictilisib; first compound 0.6325 µM)	relative viability (Vandetanib + Pictilisib; first compound 2 µM)	relative viability (Vandetanib + Alpelisib; first compound 0.02 µM)	relative viability (Vandetanib + Alpelisib; first compound 0.06325 µM)	relative viability (Vandetanib + Alpelisib; first compound 0.2 µM)	relative viability (Vandetanib + Alpelisib; first compound 0.6325 µM)	relative viability (Vandetanib + Alpelisib; first compound 2 µM)	relative viability (Vandetanib + Decitabine; first compound 0.02 µM)	relative viability (Vandetanib + Decitabine; first compound 0.06325 µM)	relative viability (Vandetanib + Decitabine; first compound 0.2 µM)	relative viability (Vandetanib + Decitabine; first compound 0.6325 µM)	relative viability (Vandetanib + Decitabine; first compound 2 µM)
HCC-44	1	0.848	0.338	0.58	0.543	0.556	0.613	0.634	0.799	0.812	0.999	0.807	0.762	0.999	0.992	0.949	0.897	0.973
EKVX	0.391	0.36	0.274	0.404	0.396	0.404	0.363	0.213	0.95	0.873	0.86	0.777	0.424	0.378	0.322	0.345	0.279	0.212
NCI-H23	0.402	0.367	0.241	0.423	0.427	0.509	0.424	0.506	0.609	0.613	0.566	0.772	0.532	0.358	0.328	0.346	0.293	0.325
NCI-H2347	0.59	0.487	0.359	0.849	0.601	0.571	0.462	0.788	1.01	0.591	1.05	1.28	1.03	0.595	0.525	0.685	0.619	0.568
SK-LU-1	0.333	0.305	0.216	0.657	0.43	0.509	0.663	0.532	1.06	0.594	1.02	0.926	0.758	0.605	0.562	0.658	0.612	0.654
A549				0.499	0.419	0.614	0.473	0.412	0.686	0.698	0.613	0.751	0.663	0.189	0.267	0.281	0.252	0.34
LU99A	0.298	0.293	0.206	0.304	0.327	0.336	0.29	0.306	0.52	0.446	0.511	0.414	0.596	0.804	0.828	0.676	0.834	0.771
NCI-H596	1.17	0.883	0.861	0.395	0.35	0.323	0.398	0.352	0.515	0.518	0.618	0.593	0.453	0.986	0.98	0.983	0.979	0.978
A-427	0.175	0.187	0.144	0.676	0.626	0.762	0.674	0.777	0.951	1.01	1.11	1.06	1.1	0.58	0.59	0.541	0.517	0.574
SW 900	0.576	0.531	0.322											0.406	0.39		0.48	0.437
COR-L 105	0.364	0.315	0.23	0.408	0.405	0.412	0.344	0.335	1.04	0.864	0.998	0.932	0.425	0.683	0.574	0.622	0.561	0.505
LOU-NH91	0.622	0.576	0.475	0.528	0.565	0.508	0.524	0.515	0.753	0.619	0.539	0.551	0.481	0.816	0.734	0.681	0.679	0.66
COR-L23	0.197	0.223	0.138	0.709	0.643	0.989	0.813	0.78	0.701	0.528	0.114	0.773	0.902	0.447	0.442	0.491	0.401	0.422
HCC-15	0.368	0.389	0.176	0.795	0.678	0.696	0.767	0.796	0.877	0.84	0.93	0.874	0.793	0.662	0.516	0.562	0.616	0.616
LCLC-103H	0.432	0.433	0.303	0.565	0.518	0.563	0.528	0.472	0.923	0.898	0.983	0.972	0.943	0.733	0.729	0.659	0.75	0.762
HARA	0.0965	0.0875	0.0538	0.385	0.248	0.337	0.369	0.392	0.812	0.76	0.861	0.821	0.537	0.466	0.653	0.515	0.559	0.578
BEN	0.513	0.492	0.392	0.576	0.49	0.585	0.646	0.538	0.976	0.897	0.928	1.04	0.867	0.651	0.7	0.625	0.725	0.446
LC-2-ad	0.448	0.377	0.286	0.503	0.4	0.167	0.324	0.19	0.815	0.876	0.898	0.802	0.498	0.707	0.729	0.89	0.836	0.616
